Laboratory results from publication PMC10649961, “Novel Mitochondria-Targeted Amphiphilic Aminophosphonium Salts and Lipids Nanoparticles: Synthesis, Antitumor Activity and Toxicity” (Nanomaterials, 2023).
≈ marks a conversion by molar mass, not a printed value. Read-outs that look alike come from different tables or passages of the source.

How the values were obtained:
[1] = system: Staphylococcus aureus ATCC 6538 P FDA 209P; assay: Antimicrobial activity, serial microdilutions, Sa; type: cell-based; settings: Staphylococcus aureus
Experimental: (§1) The antimicrobial activity of test compounds was determined by serial microdilutions in 96-well plates using Mueller-Hinton broth for bacterial culture and Sabouraud broth for yeast culture. Cultures of Gram-positive bacteria were used in the experiment: Staphylococcus aureus ATCC 6538 P FDA 209P, Bacillus cereus ATCC 10702 NCTC 8035, Enterococcus faecalis ATCC 29212; Gram-negative bacteria: Escherichia coli ATCC 25922, Pseudomonas aeruginosa ATCC 9027; and yeast: Candida albicans ATCC 10231, purchased from the State Collection of Pathogenic Microorganisms and Cell Cultures “SCPM-Obolensk” (Obolensk, Russia). Methicillin-resistant strains of S. aureus (MRSA) were isolated from patients with chronic tonsillitis (MRSA-1) and sinusitis (MRSA-2) in the bacteriological laboratory of the Republican Clinical Hospital (Kazan, Russia). The experiments were carried out in triplicate.

[2] = system: Bacillus cereus ATCC 10702 NCTC 8035; assay: Antimicrobial activity, serial microdilutions, Bc; type: cell-based; settings: Bacillus cereus
Experimental: as §1

[3] = system: Enterococcus faecalis ATCC 29212; assay: Antimicrobial activity, serial microdilutions, Ef; type: cell-based; settings: Enterococcus faecalis
Experimental: as §1

MRSA-1 = assay: Antimicrobial activity, serial microdilutions, MRSA-1; type: cell-based, S. aureus; settings: Staphylococcus aureus
Experimental: as §1

MRSA-2 = assay: Antimicrobial activity, serial microdilutions, MRSA-2; type: cell-based, S. aureus; settings: Staphylococcus aureus
Experimental: as §1

[4] = system: Escherichia coli ATCC 25922; assay: Antimicrobial activity, serial microdilutions, Ec; type: cell-based; set-up: key to Minimum Inhibitory Concentration (MIC) / Minimum bactericidal and fungicidal concentrations (MBC, MFC): – means non-active
Experimental: as §1

[5] = system: Pseudomonas aeruginosa ATCC 9027; assay: Antimicrobial activity, serial microdilutions, Pa; type: cell-based; settings: Pseudomonas aeruginosa
Experimental: as §1

[6] = system: Candida albicans ATCC 10231; assay: Antimicrobial activity, serial microdilutions, Ca; type: cell-based; settings: Candida albicans, ATCC10231; for MIC: read-out: Minimum Inhibitory Concentration (MIC); for MBC: read-out: Minimum bactericidal and fungicidal concentrations (MBC, MFC)
Experimental: as §1

M-HeLa [7] = settings: calculated relative to the cell line Chang liver (b)
MCF-7 [8] = settings: calculated relative to the cell line Chang liver (b)
HuTu 80 [9] = settings: calculated relative to the cell line Chang liver (b)
PANC-1 [10] = settings: calculated relative to the cell line Chang liver (b)
A549 [11] = settings: calculated relative to the cell line Chang liver (b)
PC3 [12] = settings: calculated relative to the cell line Chang liver (b)
T98G [13] = settings: calculated relative to the cell line Chang liver (b)
Hep G2 [14] = settings: calculated relative to the cell line Chang liver (b)
SK-OV-3 [15] = settings: calculated relative to the cell line Chang liver (b)
DU-145 [16] = settings: calculated relative to the cell line Chang liver (b)
M-HeLa [17] = assay: cells; settings: Homo sapiens, 48 h, read-out: Cytotoxic Effects (IC50)
MCF-7 [18] = assay: cells; settings: Homo sapiens, MCF7, 48 h, read-out: Cytotoxic Effects (IC50)
HuTu 80 [19] = assay: cells; settings: Homo sapiens, HuTu80, 48 h, read-out: Cytotoxic Effects (IC50)
PANC-1 [20] = assay: cells; settings: Homo sapiens, PANC-1, 48 h, read-out: Cytotoxic Effects (IC50)
A549 [21] = assay: cells; settings: Homo sapiens, A549, 48 h, read-out: Cytotoxic Effects (IC50)
PC3 [22] = assay: cells; settings: Homo sapiens, PC-3, 48 h, read-out: Cytotoxic Effects (IC50), PC3, MTT assay, 48 h
T98G [23] = assay: cells; settings: Homo sapiens, 48 h, read-out: Cytotoxic Effects (IC50)
Hep G2 [24] = assay: cells; settings: Homo sapiens, HepG2, 48 h, read-out: Cytotoxic Effects (IC50)
SK-OV-3 [25] = assay: cells; settings: Homo sapiens, SK-OV-3, 48 h, read-out: Cytotoxic Effects (IC50)
DU-145 [26] = assay: cells; settings: Homo sapiens, DU-145, 48 h
[27] = read-out: Minimum Inhibitory Concentration (MIC)
[28] = read-out: Minimum bactericidal and fungicidal concentrations (MBC, MFC)

Compound `CCCCCCCCCCCCCC[P+](N(CC)CC)(N(CC)CC)N(CC)CC` [4e, Tris(diethylamino)(tetradecyl)phosphonium bromide] has an MIC [1, 27] of 0.25 ± 0.01 µM, an MBC [1, 28] of 0.9 ± 0.07 µM and an MIC ([2]; Bc, read-out: Minimum Inhibitory Concentration (MIC)) of 0.5 ± 0.04 µM. It also gave an MBC [2, 28] of 7.8 ± 0.6 µM, an MIC ([3]; ATCC29212, read-out: Minimum Inhibitory Concentration (MIC)) of 0.5 ± 0.04 µM and an MBC ([3]; ATCC29212, read-out: Minimum bactericidal and fungicidal concentrations (MBC, MFC)) of 1.9 ± 0.1 µM. It also gave an MIC (MRSA-1; [27]) of 0.5 ± 0.04 µM, an MBC (MRSA-1; [28]) of 0.5 ± 0.04 µM and an MIC (MRSA-2; [27]) of 0.25 ± 0.02 µM. It also gave an MBC (MRSA-2; [28]) of 0.25 ± 0.02 µM, an MIC ([4]; Escherichia coli, ATCC25922, read-out: Minimum Inhibitory Concentration (MIC)) of 15.6 ± 1.3 µM and an MBC ([4]; Escherichia coli, ATCC25922, read-out: Minimum bactericidal and fungicidal concentrations (MBC, MFC)) of 62.5 ± 5.2 µM. The MIC ([5]; ATCC9027, read-out: Minimum Inhibitory Concentration (MIC)) was 7.8 ± 0.6 µM, the MBC ([5]; ATCC9027, read-out: Minimum bactericidal and fungicidal concentrations (MBC, MFC)) was 7.8 ± 0.6 µM and the MIC [6] was 1.9 ± 0.1 µM. The MBC [6] was 7.8 ± 0.6 µM, the “selectivity index (SI)” value (M-HeLa [7]) was 4.3 and the “selectivity index (SI)” value (MCF-7 [8]) was 1.9. For the same compound, the “selectivity index (SI)” value (HuTu 80 [9]) was 28, the “selectivity index (SI)” value (PANC-1 [10]) was 4.3 and the “selectivity index (SI)” value (A549 [11]) was 1.0. The “selectivity index (SI)” value (PC3 [12]) was 1.0, the “selectivity index (SI)” value (T98G [13]) was 1.7 and the “selectivity index (SI)” value (Hep G2 [14]) was 1.1. For the same compound, the “selectivity index (SI)” value (SK-OV-3 [15]) was 1.0, the “selectivity index (SI)” value (DU-145 [16]) was 4.3 and the IC50 (M-HeLa [17]) was 400 ± 30 nM. It also gave an IC50 (MCF-7 [18]) of 900 ± 70 nM, an IC50 (HuTu 80 [19]) of 60 ± 5 nM and an IC50 (PANC-1 [20]) of 400 ± 30 nM. It also gave an IC50 (A549 [21]) of 1700 ± 100 nM, an IC50 (PC3 [22]) of 1700 ± 100 nM and an IC50 (T98G [23]) of 1000 ± 90 nM. It also gave an IC50 (Hep G2 [24]) of 1500 ± 100 nM, an IC50 (SK-OV-3 [25]) of 1700 ± 100 nM and an IC50 (DU-145 [26]; read-out: Cytotoxic Effects (IC50), DU-145, MTT assay, 48 h) of 400 ± 30 nM.
`COc1cccc2c1C(=O)c1c(O)c3c(c(O)c1C2=O)C[C@@](O)(C(=O)CO)C[C@@H]3O[C@H]1C[C@H](N)[C@H](O)[C@H](C)O1` [doxorubicin, reference compound] showed an IC50 (M-HeLa [17]) of 2100 ± 100 nM, an IC50 (MCF-7 [18]) of 400 ± 30 nM and an IC50 (HuTu 80 [19]) of 200 ± 10 nM. It also gave an IC50 (PANC-1 [20]) of 2200 ± 100 nM, an IC50 (A549 [21]) of 700 ± 60 nM and an IC50 (T98G [23]) of 1000 ± 90 nM. It also gave an IC50 (Hep G2 [24]) of 200 ± 10 nM, an IC50 (SK-OV-3 [25]) of 6700 ± 500 nM and an IC50 (DU-145 [26]; read-out: Cytotoxic Effects (IC50)) of 300 ± 20 nM.
In the case of `CC(=O)N1CCN(c2ccc(OCC3COC(Cn4ccnc4)(c4ccc(Cl)cc4Cl)O3)cc2)CC1` (stereo not drawn) [Ketoconazole, reference compound], the “Minimum Inhibitory Concentration (MIC)” value [4] is reported as “–”, the MIC [6] is reported as 7.3 ± 0.5 µM (≈ 3.88 µg/mL) and the MBC [6] is reported as 7.3 ± 0.5 µM (≈ 3.88 µg/mL).
